The numbers were not newly measured in patent US10822400B2, “Dynamin 2 inhibitor for the treatment of Duchenne's muscular dystrophy” (UNIVERSITE DE STRASBOURG, priority 2015, dated 2020), which cites them from elsewhere.

The target in one data set is T1, dynamin 2 (Homo sapiens, UniProt P50570).
T1 sequence (P50570 1-870): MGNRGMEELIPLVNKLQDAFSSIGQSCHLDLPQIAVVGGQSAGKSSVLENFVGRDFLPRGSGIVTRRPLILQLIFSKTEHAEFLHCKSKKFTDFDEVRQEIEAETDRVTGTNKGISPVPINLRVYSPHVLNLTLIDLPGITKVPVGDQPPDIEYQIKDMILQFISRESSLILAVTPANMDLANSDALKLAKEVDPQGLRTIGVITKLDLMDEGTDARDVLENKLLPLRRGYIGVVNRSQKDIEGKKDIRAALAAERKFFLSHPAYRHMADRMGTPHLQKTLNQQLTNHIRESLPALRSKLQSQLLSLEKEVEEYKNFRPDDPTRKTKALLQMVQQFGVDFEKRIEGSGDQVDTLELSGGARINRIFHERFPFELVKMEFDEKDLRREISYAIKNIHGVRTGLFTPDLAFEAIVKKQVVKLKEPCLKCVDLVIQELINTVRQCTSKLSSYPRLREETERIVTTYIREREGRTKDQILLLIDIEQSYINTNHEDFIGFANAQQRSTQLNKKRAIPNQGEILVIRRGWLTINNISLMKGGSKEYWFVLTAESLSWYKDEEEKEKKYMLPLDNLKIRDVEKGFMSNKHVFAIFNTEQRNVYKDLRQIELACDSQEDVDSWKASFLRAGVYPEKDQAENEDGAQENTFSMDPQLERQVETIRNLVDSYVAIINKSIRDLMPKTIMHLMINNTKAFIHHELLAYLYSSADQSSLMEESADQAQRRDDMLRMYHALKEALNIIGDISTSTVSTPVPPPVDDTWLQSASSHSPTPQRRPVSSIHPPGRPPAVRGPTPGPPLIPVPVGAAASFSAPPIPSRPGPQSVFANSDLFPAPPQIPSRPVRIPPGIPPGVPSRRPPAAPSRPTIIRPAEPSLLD
The settings on record: read-out: IC50 for inhibition of dynamin 2 (dynamin II).

In the next data set the test system is mitochondrial division. The settings on record: read-out: IC50 as mitochondrial division inhibitor.
Data set [1] has as its target receptor-mediated and synaptic vesicle endocytosis. Conditions: read-out: IC50 for inhibition of receptor-mediated and synaptic vesicle endocytosis.

As for `O=C(NN=Cc1cc(O)c(O)cc1O)c1cc2ccccc2cc1O` [Hydroxy-Dynasore, 3-Hydroxy-N′-[(2,4,5-trihydroxyphenyl)methylidene]naphthalene-2-carbohydrazide], at dynamin 2, the IC50 was 2600 nM.
With `COc1cc(-n2c(S)nc3ccccc3c2=O)c(Cl)cc1Cl` [M-divi 1, 3-(2,4-Dichloro-5-methoxyphenyl)-2-sulfanylquinazolin-4(3H)-one], the IC50 in the data set on mitochondrial division is 10000 nM.
As to `CCCCCCCCCCCCCC[N+](C)(C)C` [MiTMAB, Tetradecyltrimethylammonium bromide], the IC50 in data set [1] was 2200 nM.

Broadly, the IC50 is the midpoint of a concentration-inhibition curve.
